# “And” between values parts separate entries of the source, which are not always exact repeats. Equal entries are not always repeated. Where two headings read alike, the source gives them in different places.
# Legend:
# CCRF-CEM cells = test: intracellular ROS, ROS-red staining and flow cytometry, CCRF-CEM; format: cell-based, human; design: ROS Negative Cells: unit not given here; settings: for ROS Negative Cells / ROS Positive Cells: listed as AVX420
# Experimental: Data are the mean ± stdev of 3 biological replicates. […] Data are the mean ± stdev of 3 biological replicates.
# Rather, when combined with AVX420, exogenous AA augmented cell death (Fig. 6e). […] The response occurred within 1 h, peaked at 8–12 h, and preceded the loss of cell viability (Fig. S9a, b).
# After treatment, cells were stained with cellular ROS Assay Kit (Cat. No. ab186029; Abcam, Cambridge, United Kingdom) following the manufacturer’s instructions, and ROS-positive cells were quantified by flow cytometry using either the NovoCyte flow cytometer, and Novoexpress Software v1.5.0 from Agilent Technologies (Santa Clara, USA) or the CytoFLEX flow cytometer and CytExpert analysis software v 2.5 from Beckman Coulter (California, United States). An example showing the gating strategy used to assess ROS-Red staining is found in Fig. S9d.
# Figure S9. Intracellular ROS accumulation and cell death. a. Time dependency of the in-crease in iROS following treatment with AVX420 in CCRF-CEM cells as measured by ROS-red stain-ing. Data are the mean ±stdev from ≥2 biological replicates b. […]
# ±stdev of ≥2 biological replicates c. intracellular ROS measurements in CCRF-CEM cells treated with 0.5 µM AVX420 in the presence of 20 µM arachidonic acid (AA) or 5 µM liproxstatin (Lip) for 4 hours. Data are the mean ± stdev of 2 biological replicates. d. […]
# analysis of ROS Red staining by flow cytometry. (i) Gating of live cells using FSC-H versus SSC-H.
# (ii) Gating based on ROS Deep Red staining under control conditions and after treatment with (iii) […]
# (1 picture or pasted object on this page, not shown here)
# isolated human PBMCs = test: eicosanoid release from A23187-stimulated PBMCs (ELISA); format: cell-based; design: 6-Keto PGF1a / 12-HETE: unit not given here; settings: for LTB4 level, PBMCs / PGE2 level, PBMCs / TxB2 level, PBMCs: A23187, individual replicate; for 6-Keto PGF1a: A23187 stimulated; for IC50: Homo sapiens, PBMC, 0.25 h, 30 µM A23187 15 min
# Experimental: In PBMCs, the calcium ionophore A23187 stimulated the release of PGE2, TXB2, LTB4, 6-keto prostaglandin F1α (PGF1α), and 12-HETE.
# PBMCs were isolated from buffy coats using Lymphoprep as described by the manufacturer ([…] Technologies, Vancouver, Canada). Red blood cells were lysed and removed using RBC lysis buffer (Roche, Basel, Switzerland) and the remaining cells were resuspended in 10 mL of RPMI-1640 supplemented with 5% FBS. The TC20 automated cell counter (BIO-RAD, Hercules, California, USA) was used to count the number of cells and check the viability by staining with trypan blue (0.4%) (NanoEnTek, Waltham, MA, USA). For experiments, 5 × 10^5 cells were seeded in 0.5 mL in 24 well plates with RPMI medium supplemented with 5% FBS, 0.3 mg/mL glutamine, and 0.1 mg/mL gentamicin. Cells were preincubated with inhibitors for 2 h before incubating with 30 µM Ca^2+ ionophore A23187 for 15 min to activate cPLA2α. After incubation, the supernatant was obtained by centrifugation at 5992 × g for 10 min at 4° and stored at −80 °C until assayed for PGE2, LTB4, TxB2, 6-Keto PGF1α, and 12S-HETE using enzyme-linked immunosorbent assays (ELISAs) (Cayman #514435, Cayman #10009292, Cayman #501020, Cayman #15210, and Enzo Lifesciences #ADI-900-050). After an overnight hybridization, the enzymatic conversion of substrate was read at OD420 nm using a Cytation 5 multimode platereader (Biotek Instruments, Winooski, VT, USA). Standard curves fit using 4-parameter logistic regression in myassays.com were used to calculate eicosanoid concentrations.
# [1] = molecular target: T1, human calcium-independent GVIA iPLA2 (Homo sapiens, UniProt O60733); design: method as in PMID 25152071; settings: 0.091 mole fraction; previously published data ref 19; cited from earlier work
# T1 sequence (O60733 1-806): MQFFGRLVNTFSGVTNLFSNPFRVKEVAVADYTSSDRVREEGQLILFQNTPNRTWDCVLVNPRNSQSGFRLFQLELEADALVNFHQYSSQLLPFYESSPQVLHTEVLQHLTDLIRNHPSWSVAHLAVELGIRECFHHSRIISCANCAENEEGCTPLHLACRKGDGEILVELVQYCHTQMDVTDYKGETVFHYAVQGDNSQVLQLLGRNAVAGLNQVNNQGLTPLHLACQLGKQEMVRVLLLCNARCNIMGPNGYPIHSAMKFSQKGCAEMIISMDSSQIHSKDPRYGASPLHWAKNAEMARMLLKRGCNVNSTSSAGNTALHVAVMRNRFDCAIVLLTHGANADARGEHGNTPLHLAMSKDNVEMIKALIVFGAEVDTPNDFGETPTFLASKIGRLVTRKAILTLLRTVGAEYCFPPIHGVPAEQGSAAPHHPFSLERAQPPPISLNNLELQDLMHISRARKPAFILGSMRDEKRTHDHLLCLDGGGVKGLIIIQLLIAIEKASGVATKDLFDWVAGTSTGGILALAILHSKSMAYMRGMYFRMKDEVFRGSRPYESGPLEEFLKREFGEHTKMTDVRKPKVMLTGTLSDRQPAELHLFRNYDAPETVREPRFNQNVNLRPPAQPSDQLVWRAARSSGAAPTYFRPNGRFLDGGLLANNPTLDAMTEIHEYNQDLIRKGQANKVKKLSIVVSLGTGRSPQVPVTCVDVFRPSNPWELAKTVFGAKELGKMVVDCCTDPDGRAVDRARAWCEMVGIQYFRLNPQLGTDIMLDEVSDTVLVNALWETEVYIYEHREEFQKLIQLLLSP
structure (smiles),measurement,setting,value
CCCCCCCOc1ccc(OCC(=O)c2nc(C(=O)OC)cs2)cc1 [GK420],time of iROS peak,CCRF-CEM cells; CCRF-CEM (Fig. S9a),8 to 12 h
same,time to iROS response,CCRF-CEM cells; CCRF-CEM (Fig. S9a),≤ 1 h
same,ROS Negative Cells,"CCRF-CEM cells; CCRF-CEM, 0.25 µM",70 and 65 and 71 and 61
same,ROS Positive Cells,"CCRF-CEM cells; CCRF-CEM, 0.25 µM",39 and 30 and 35 and 29
same,ROS Negative Cells,"CCRF-CEM cells; CCRF-CEM, 0.5 µM",34 and 29 and 30 and 32 and 33
same,ROS Positive Cells,"CCRF-CEM cells; CCRF-CEM, 0.5 µM",70 and 68 and 67 and 66 and 71
same,ROS Negative Cells,"CCRF-CEM cells; CCRF-CEM, 1 µM",13 and 15 and 12 and 11
same,ROS Positive Cells,"CCRF-CEM cells; CCRF-CEM, 1 µM",89 and 87 and 85 and 88
same,ROS Negative Cells,"CCRF-CEM cells; CCRF-CEM, 2 µM",8 and 6 and 9 and 10
same,ROS Positive Cells,"CCRF-CEM cells; CCRF-CEM, 2 µM",90 and 92 and 94 and 91
same,intracellular ROS (iROS),"CCRF-CEM cells; CCRF-CEM, 4 h",dose-dependent increase
same,"LTB4 level, PBMCs",isolated human PBMCs; 0.5 µM,429.9 pg/mL and 749.3 pg/mL and 255.6 pg/mL and 605.5 pg/mL
same,"PGE2 level, PBMCs",isolated human PBMCs; 0.5 µM,169.2 pg/mL and 38.5 pg/mL and 267.8 pg/mL and 309 pg/mL
same,"TxB2 level, PBMCs",isolated human PBMCs; 0.5 µM,8408.2 pg/mL and 1252.3 pg/mL and 13129.8 pg/mL and 13753.8 pg/mL
same,6-Keto PGF1a,isolated human PBMCs; 0.5 µM,21.6 and 26.4
same,"LTB4 level, PBMCs",isolated human PBMCs; 1 µM,370.9 pg/mL and 289.7 pg/mL and 718.4 pg/mL and 239.1 pg/mL
same,"PGE2 level, PBMCs",isolated human PBMCs; 1 µM,247.2 pg/mL and 134.2 pg/mL and 36.8 pg/mL and 244.2 pg/mL
same,"TxB2 level, PBMCs",isolated human PBMCs; 1 µM,11110.6 pg/mL and 8481.1 pg/mL and 1330.2 pg/mL and 14838.7 pg/mL
same,6-Keto PGF1a,isolated human PBMCs; 1 µM,16.6 and 27.5
same,"LTB4 level, PBMCs",isolated human PBMCs; 2.5 µM,144.2 pg/mL and 219 pg/mL and 387.5 pg/mL and 190 pg/mL
same,"PGE2 level, PBMCs",isolated human PBMCs; 2.5 µM,238.2 pg/mL and 102.2 pg/mL and 66 pg/mL and 196.8 pg/mL
same,"TxB2 level, PBMCs",isolated human PBMCs; 2.5 µM,7528.6 pg/mL and 7919.2 pg/mL and 1078.1 pg/mL and 10138.3 pg/mL
same,6-Keto PGF1a,isolated human PBMCs; 2.5 µM,15.1 and 17.9
same,"LTB4 level, PBMCs",isolated human PBMCs; 5 µM,107.5 pg/mL and 125.8 pg/mL and 244.5 pg/mL and 111.7 pg/mL
same,"PGE2 level, PBMCs",isolated human PBMCs; 5 µM,149.4 pg/mL and 71.6 pg/mL and 38.8 pg/mL and 141.2 pg/mL
same,"TxB2 level, PBMCs",isolated human PBMCs; 5 µM,4591 pg/mL and 3235.3 pg/mL and 764.8 pg/mL and 7035.5 pg/mL
same,6-Keto PGF1a,isolated human PBMCs; 5 µM,16.9 and 21.1
same,"LTB4 level, PBMCs",isolated human PBMCs; 10 µM,64.7 pg/mL and 93.8 pg/mL and 115.3 pg/mL and 64.3 pg/mL
same,"PGE2 level, PBMCs",isolated human PBMCs; 10 µM,129 pg/mL and 52.7 pg/mL and 30.5 pg/mL and 67 pg/mL
same,"TxB2 level, PBMCs",isolated human PBMCs; 10 µM,2621.7 pg/mL and 1488.5 pg/mL and 633.4 pg/mL and 3277.7 pg/mL
same,IC50,"isolated human PBMCs; PBMCs, read-out: IC50 LTB4 inhibition",317 nM
same,IC50,"isolated human PBMCs; PBMCs, read-out: IC50 PGE2 inhibition",1100 nM
same,IC50,"isolated human PBMCs; PBMCs, read-out: IC50 TXB2 inhibition",2200 nM
same,effect on 6-keto PGF1α and 12-HETE,"isolated human PBMCs; PBMCs, A23187, IC50 values could not be calculated",tendency to suppress
CCCCCCCCc1ccc(OCC(=O)c2nc(C(=O)OC)cs2)cc1 [GK470],GVIA iPLA2 % Inhib,[1],86%

# Reference: paper PMC11696576, “Next generation thiazolyl ketone inhibitors of cytosolic phospholipase A2 α for targeted cancer therapy” (Nature Communications, 2025)
